Measured values from patent US8541418B2, “Inhibitors of polo-like kinase” (Elan Pharmaceutical, Inc., priority 2009, dated 2013).
Read-outs that look alike come from different tables or passages of the source.

Key:
Format in all cases: biochemical
PLK2 = PLK2 (Homo sapiens, UniProt Q9NYY3); assay: PLK TR-FRET peptide assay, PLK2; conditions: for IC50: PLK TR-FRET peptide assay, GST-PLK2, 60 min reaction, read-out: Plk2 IC50; for relative PLK2 activity of the enantiomers: compared with the opposite enantiomer
Chain of PLK2 (Q9NYY3 whole entry): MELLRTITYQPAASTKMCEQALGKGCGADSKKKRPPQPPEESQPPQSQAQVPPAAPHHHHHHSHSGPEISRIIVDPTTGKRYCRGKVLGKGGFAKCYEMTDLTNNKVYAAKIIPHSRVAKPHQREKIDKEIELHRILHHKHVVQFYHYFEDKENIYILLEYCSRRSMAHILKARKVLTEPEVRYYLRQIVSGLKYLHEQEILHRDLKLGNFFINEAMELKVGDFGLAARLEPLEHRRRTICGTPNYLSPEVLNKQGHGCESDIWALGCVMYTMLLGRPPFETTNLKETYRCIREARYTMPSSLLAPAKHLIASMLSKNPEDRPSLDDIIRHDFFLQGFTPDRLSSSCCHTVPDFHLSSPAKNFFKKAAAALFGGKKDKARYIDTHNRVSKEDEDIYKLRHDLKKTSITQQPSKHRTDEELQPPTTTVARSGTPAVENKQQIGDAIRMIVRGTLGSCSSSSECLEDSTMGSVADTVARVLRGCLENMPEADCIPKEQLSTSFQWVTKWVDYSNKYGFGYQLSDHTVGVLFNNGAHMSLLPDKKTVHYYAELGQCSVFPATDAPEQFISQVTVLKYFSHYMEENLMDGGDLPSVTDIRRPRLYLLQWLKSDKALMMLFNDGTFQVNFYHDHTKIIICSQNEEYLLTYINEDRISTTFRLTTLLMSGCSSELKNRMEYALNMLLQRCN

PLK1 = PLK1 (Homo sapiens, UniProt P53350); assay: PLK TR-FRET peptide assay, PLK1; conditions: GST-PLK1, 60 min reaction
Chain of PLK1 (P53350 whole entry): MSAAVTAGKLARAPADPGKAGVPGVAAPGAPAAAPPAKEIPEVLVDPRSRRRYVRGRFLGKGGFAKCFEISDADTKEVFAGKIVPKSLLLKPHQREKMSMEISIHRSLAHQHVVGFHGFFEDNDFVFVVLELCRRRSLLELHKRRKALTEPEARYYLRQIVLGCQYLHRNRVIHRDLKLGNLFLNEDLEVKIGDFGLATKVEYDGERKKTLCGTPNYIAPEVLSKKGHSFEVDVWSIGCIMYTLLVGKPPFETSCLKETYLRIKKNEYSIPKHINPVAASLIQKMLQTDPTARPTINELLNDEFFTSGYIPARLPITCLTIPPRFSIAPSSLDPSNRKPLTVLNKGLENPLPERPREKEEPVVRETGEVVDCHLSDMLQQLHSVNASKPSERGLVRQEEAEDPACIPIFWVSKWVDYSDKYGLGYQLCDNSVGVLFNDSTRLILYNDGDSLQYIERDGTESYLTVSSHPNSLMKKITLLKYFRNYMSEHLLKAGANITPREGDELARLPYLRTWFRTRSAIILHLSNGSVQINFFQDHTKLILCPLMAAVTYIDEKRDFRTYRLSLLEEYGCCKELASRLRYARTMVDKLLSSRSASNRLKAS

PLK3 = PLK3 (Homo sapiens, UniProt Q9H4B4); assay: PLK TR-FRET peptide assay, PLK3
Chain of PLK3 (Q9H4B4 whole entry): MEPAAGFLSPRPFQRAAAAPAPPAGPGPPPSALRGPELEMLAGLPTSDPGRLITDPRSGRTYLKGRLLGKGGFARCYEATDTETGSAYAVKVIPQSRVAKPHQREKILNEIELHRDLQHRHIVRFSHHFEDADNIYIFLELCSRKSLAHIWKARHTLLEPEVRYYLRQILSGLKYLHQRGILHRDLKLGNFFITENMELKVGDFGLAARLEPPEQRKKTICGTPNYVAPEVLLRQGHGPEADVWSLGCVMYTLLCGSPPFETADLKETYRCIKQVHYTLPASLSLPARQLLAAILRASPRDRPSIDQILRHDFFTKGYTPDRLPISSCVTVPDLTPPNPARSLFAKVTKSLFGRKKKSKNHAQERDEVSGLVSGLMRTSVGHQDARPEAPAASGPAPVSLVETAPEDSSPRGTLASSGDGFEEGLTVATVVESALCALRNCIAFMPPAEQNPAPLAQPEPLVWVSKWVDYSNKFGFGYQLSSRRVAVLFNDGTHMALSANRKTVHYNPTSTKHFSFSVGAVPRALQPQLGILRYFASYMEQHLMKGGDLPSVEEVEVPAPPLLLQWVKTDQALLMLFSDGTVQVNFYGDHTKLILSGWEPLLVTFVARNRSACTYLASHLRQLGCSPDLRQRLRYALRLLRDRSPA

[1] = GST-PLK3, 15 min reaction, read-out: Plk3 IC50
[2] = read-out: Plk3 IC50, GST-PLK3, 15 min reaction

Row | IC50 (PLK2) | IC50 (PLK1) | relative PLK2 activity of the enantiomers (PLK2) | Structure (SMILES) | further results
1 | 1 to 10 µM | 10 to 50 µM |  | CC[C@@H]1C(=O)N(C)c2cnc(N3CCCC3)nc2N1C1CCCC1 [Example 1, (R)-8-cyclopentyl-7-ethyl-5-methyl-2-(pyrrolidin-1-yl)-7,8-dihydropteridin-6(5H)-one] | 
2 | 10 to 50 µM | 10 to 50 µM |  | CC[C@@H]1C(=O)N(C)c2cnc(N3CCCCC3)nc2N1C1CCCC1 [Example 2, (R)-8-cyclopentyl-7-ethyl-5-methyl-2-(piperidin-1-yl)-7,8-dihydropteridin-6(5H)-one] | 
3 | < 1 µM | < 1 µM |  | CC[C@@H]1C(=O)N(C)c2cnc(-n3cnc4ccccc43)nc2N1C1CCCC1 [Example 4, (R)-2-(1H-benzo[d]imidazol-1-yl)-8-cyclopentyl-7-ethyl-5-methyl-7,8-dihydropteridin-6(5H)-one] | 
4 | < 1 µM | < 1 µM |  | CC[C@@H]1C(=O)N(C)c2cnc(-c3ccc[nH]3)nc2N1C1CCCC1 [Example 6, (R)-8-cyclopentyl-7-ethyl-5-methyl-2-(1H-pyrrol-2-yl)-7,8-dihydropteridin-6(5H)-one] | 
5 | 1 to 10 µM | 1 to 10 µM |  | CC[C@@H]1C(=O)N(C)c2cnc(-c3ccccn3)nc2N1C1CCCC1 [Example 8, (R)-8-cyclopentyl-7-ethyl-5-methyl-2-(pyridin-2-yl)-7,8-dihydropteridin-6(5H)-one] | 
6 | 1 to 10 µM | < 1 µM |  | CC[C@@H]1C(=O)N(C)c2cnc(-c3cc4ccccc4[nH]3)nc2N1C1CCCC1 [Example 9, (R)-8-cyclopentyl-7-ethyl-2-(1H-indol-2-yl)-5-methyl-7,8-dihydropteridin-6(5H)-one] | 
7 | 1 to 10 µM | 10 to 50 µM |  | CC[C@@H]1C(=O)N(C)c2cnc(-c3cccc4cc[nH]c34)nc2N1C1CCCC1 [Example 10, (R)-8-cyclopentyl-7-ethyl-2-(1H-indol-7-yl)-5-methyl-7,8-dihydropteridin-6(5H)-one] | 
8 | 10 to 50 µM | > 50 µM |  | CC[C@@H]1C(=O)N(C)c2cnc(-c3cccc4cccnc34)nc2N1C1CCCC1 [Example 11, (R)-8-cyclopentyl-7-ethyl-5-methyl-2-(quinolin-8-yl)-7,8-dihydropteridin-6(5H)-one] | 
9 | 1 to 10 µM | 1 to 10 µM |  | CC[C@@H]1C(=O)N(C)c2cnc(-c3ccccc3)nc2N1C1CCCC1 [Example 12, (R)-8-cyclopentyl-7-ethyl-5-methyl-2-phenyl-7,8-dihydropteridin-6(5H)-one] | 
10 | < 1 µM | < 1 µM |  | CC[C@@H]1C(=O)N(C)c2cnc(-c3ccnc(OC)c3)nc2N1C1CCCC1 [Example 15, (R)-8-cyclopentyl-7-ethyl-2-(2-methoxypyridin-4-yl)-5-methyl-7,8-dihydropteridin-6(5H)-one] | 
11 | > 50 µM | > 50 µM |  | CN1C(=O)[C@H]2CCCCN2c2nc(-n3ccnc3)ncc21 [Example 24, (R)-2-(1H-imidazol-1-yl)-5-methyl-7,8,9,10-tetrahydro-5H-pyrido[2,1-h]pteridin-6(6aH)-one] | 
12 | > 50 µM | > 50 µM |  | CC[C@@H]1C(=O)N(C)c2cnc(-n3cc[n+](C)c3C)nc2N1C1CCCC1 [Example 28, (R)-1-(8-cyclopentyl-7-ethyl-5-methyl-6-oxo-5,6,7,8-tetrahydropteridin-2-yl)-2,3-dimethyl-1H-imidazol-3-ium] | 
13 |  | < 1 µM |  | CC[C@@H]1C(=O)N(C)c2cnc(-c3ccccc3-c3ccccc3)nc2N1C1CCCC1 [Example 70, (R)-2-(biphenyl-2-yl)-8-cyclopentyl-7-ethyl-5-methyl-7,8-dihydropteridin-6(5H)-one] | IC50 (PLK3; [1]): < 1 µM
14 |  | 10 to 50 µM |  | CC[C@@H]1C(=O)N(C)c2cnc(-c3ccncc3CNC(=O)OC(C)(C)C)nc2N1C1CCCC1 [Example 106, (R)-tert-butyl (4-(8-cyclopentyl-7-ethyl-5-methyl-6-oxo-5,6,7,8-tetrahydropteridin-2-yl)pyridin-3-yl)methylcarbamate] | IC50 (PLK3; [1]): > 50 µM

The remaining lines, values behind:

Row | Structure (SMILES) | IC50 (PLK2) | IC50 (PLK1) | relative PLK2 activity of the enantiomers (PLK2) | further results
15 | CN1C(=O)[C@H]2CCCCN2c2nc(-c3ccncc3)ncc21 [Example 25, (R)-5-methyl-2-(pyridin-4-yl)-7,8,9,10-tetrahydro-5H-pyrido[2,1-h]pteridin-6(6aH)-one] | 10 to 50 µM | > 50 µM |  | 
16 | CCOC(=O)c1cnn(-c2ncc3c(n2)N(C2CCCC2)[C@H](CC)C(=O)N3)c1 [Example 30, (R)-ethyl 1-(8-cyclopentyl-7-ethyl-6-oxo-5,6,7,8-tetrahydropteridin-2-yl)-1H-pyrazole-4-carboxylate] | > 50 µM | > 50 µM |  | 
17 | CC[C@@H]1C(=O)N(C)c2cnc(-n3cc(C(=O)NC)cn3)nc2N1C1CCCC1 [Example 40, (R)-1-(8-cyclopentyl-7-ethyl-5-methyl-6-oxo-5,6,7,8-tetrahydropteridin-2-yl)-N-methyl-1H-pyrazole-4-carboxamide] | 1 to 10 µM |  |  | 
18 | CC[C@@]12CCCN1c1nc(-n3ccnc3-c3cccc(Br)c3)ncc1N(C)C2=O [Example 252, (S)-2-(2-(3-bromophenyl)-1H-imidazol-1-yl)-6a-ethyl-5-methyl-6a,7,8,9-tetrahydropyrrolo[2,1-h]pteridin-6(5H)-one] |  | 1 to 10 µM |  | IC50 (PLK3; [1]): 10 to 50 µM
19 | CCC1(C)C(=O)N(C)c2cnc(-n3ccnc3-c3ccc(F)cc3)nc2N1CCC(F)(F)F (stereo not drawn) [Example 279, 7-ethyl-2-(2-(4-fluorophenyl)-1H-imidazol-1-yl)-5,7-dimethyl-8-(3,3,3-trifluoropropyl)-7,8-dihydropteridin-6(5H)-one] |  |  |  | IC50 (PLK3; [2]): 10 to 50 µM
20 | CC(C)N1c2nc(-n3ccnc3-c3ccc(F)cc3)ncc2N(C)C(=O)C12CCC2 [Example 290, 2′-(2-(4-fluorophenyl)-1H-imidazol-1-yl)-8′-isopropyl-5′-methyl-5′H-Spiro[cyclobutane-1,7′-pteridin]-6′(8′H)-one] |  |  |  | IC50 (PLK3; [2]): 10 to 50 µM
21 | CCC1C(=O)N(C)c2cnc(-n3ccnc3-c3ccc(F)cc3)nc2N1c1cccc(C#N)c1 (stereo not drawn) [Example 332] | < 1 µM |  |  | IC50 (PLK3; [1]): 1 to 10 µM
22 | CC[C@@]12COCCN1c1nc(-c3cn[nH]c3-c3nccs3)ncc1N(C)C2=O [Example 344, (S)-6a-ethyl-5-methyl-2-(5-(thiazol-2-yl)-1H-pyrazol-4-yl)-6a,7,9,10-tetrahydro-[1,4]oxazino[3,4-h]pteridin-6(5H)-one] |  |  | more active compound | 
23 | CC[C@@]12COCCN1c1nc(-c3snnc3-c3ccccc3)ncc1N(C)C2=O [Example 368, (S)-6a-ethyl-5-methyl-2-(4-phenyl-1,2,3-thiadiazol-5-yl)-6a,7,9,10-tetrahydro-[1,4]oxazino[3,4-h]pteridin-6(5H)-one] |  |  | more active compound | 
24 | CC[C@@]12CN(C)CCN1c1nc(-n3ccnc3-c3ccccc3)ncc1N(C)C2=O [Example 374, (S)-6a-ethyl-5,8-dimethyl-2-(2-phenyl-1H-imidazol-1-yl)-7,8,9,10-tetrahydro-5H-pyrazino[2,1-h]pteridin-6(6aH)-one] |  |  | more active compound | 
25 | CC[C@@]12COCCN1c1nc(-n3ccnc3-c3ccc(F)cc3F)ncc1N(C)C2=O [Example 376, (S)-2-(2-(2,4-difluorophenyl)-1H-imidazol-1-yl)-6a-ethyl-5-methyl-6a,7,9,10-tetrahydro-[1,4]oxazino[3,4-h]pteridin-6(5H)-one] |  |  | more active compound | 
26 | CC[C@@]12COCCN1c1nc(-n3ccnc3-c3ccc(F)cn3)ncc1N(C)C2=O [Example 380, (S)-6a-ethyl-2-(2-(5-fluoropyridin-2-yl)-1H-imidazol-1-yl)-5-methyl-6a,7,9,10-tetrahydro-[1,4]oxazino[3,4-h]pteridin-6(5H)-one] |  |  | more active compound | 
27 | CC[C@@]12COCCN1c1nc(-n3ccnc3-c3nccs3)ncc1N(C)C2=O [Example 387, (S)-6a-ethyl-5-methyl-2-(2-(thiazol-2-yl)-1H-imidazol-1-yl)-6a,7,9,10-tetrahydro-[1,4]oxazino[3,4-h]pteridin-6(5H)-one] |  |  | more active compound | 
28 | CC[C@@]12COCCN1c1nc(-c3ccncc3-c3ccccc3)ncc1N(C)C2=O [Example 394, (S)-6a-ethyl-5-methyl-2-(3-phenylpyridin-4-yl)-6a,7,9,10-tetrahydro-[1,4]oxazino[3,4-h]pteridin-6(5H)-one] |  |  | more active compound | 
29 | CC[C@@]12COCCN1c1nc(-c3snnc3-c3ccc(F)cc3F)ncc1N(C)C2=O [Example 397, (S)-2-(4-(2,4-difluorophenyl)-1,2,3-thiadiazol-5-yl)-6a-ethyl-5-methyl-6a,7,9,10-tetrahydro-[1,4]oxazino[3,4-h]pteridin-6(5H)-one] |  |  | more active compound | 
30 | CC[C@@H]1C(=O)N(C)c2cnc(-n3ccnc3-c3ccc(F)cc3)nc2N1c1ccn(C)n1 [Example 407, (R)-7-ethyl-2-(2-(4-fluorophenyl)-1H-imidazol-1-yl)-5-methyl-8-(1-methyl-1H-pyrazol-3-yl)-7,8-dihydropteridin-6(5H)-one] |  |  | more active compound | 
31 | CC[C@@H]1C(=O)N(C)c2cnc(-n3ccnc3-c3ccccc3)nc2N1c1cnn(C)c1 [Example 409, (R)-7-ethyl-5-methyl-8-(1-methyl-1H-pyrazol-4-yl)-2-(2-phenyl-1H-imidazol-1-yl)-7,8-dihydropteridin-6(5H)-one] |  |  | more active compound | 
32 | CC[C@@]12COCCN1c1nc(-c3cn[nH]c3-c3ccc(F)cc3F)ncc1N(C)C2=O [Example 411, (S)-2-(5-(2,4-difluorophenyl)-1H-pyrazol-4-yl)-6a-ethyl-5-methyl-6a,7,9,10-tetrahydro-[1,4]oxazino[3,4-h]pteridin-6(5H)-one] |  |  | more active compound | 
33 | CC[C@@]12COCCN1c1nc(-n3ccnc3-c3ccccc3)ncc1NC2=O [Example 418, (S)-6a-ethyl-2-(2-phenyl-1H-imidazol-1-yl)-6a,7,9,10-tetrahydro-[1,4]oxazino[3,4-h]pteridin-6(5H)-one] |  |  | more active compound | 
